The values that follow come from patent publication US9622498B2 (Vera Roasting Company, Inc., priority 2015, dated 2017).

The conditions of data set [1]: cited from earlier work.
Data set [2] can be described thus: Solubility of resveratrol in glycerin tested using UV/vis spectroscopy. Type of data set: physicochemical. The text has this:
This low solubility inhibits adequate, reproducible absorption from the gastrointestinal tract. For this reason, poor solubility is closely associated with low bioavailability. […] Glycerin engages in H-bonding interactions at both ends of the molecule, forming a 2:1 H-bonding complex.

Molecules are shown by their SMILES.

For the molecule `Oc1ccc(C=Cc2cc(O)cc(O)c2)cc1` [resveratrol, 3,5,4′-trihydroxystilbene], the “solubility of resveratrol in water” value in data set [1] is “approximately 3 mg/100 mL”. In data set [2] (glycerin versus water), the “times more soluble in glycerin than in water” value is “at least 48 times”. The “solubility of resveratrol in glycerin” value in data set [2] (glycerin, UV/vis spectroscopy) is reported as at least 144 mg/100 mL.
